Data on 16 molecules can be found in US6482948B1, “Thienopyrimidine compounds and salts thereof and process for the preparation of the same” (Nippon Soda Co., Ltd., priority 1999, dated 2002).

Bounds are passed on as bounds.

Data set [1] addresses PDE 1 (Ca-calmodulin activatable PDE). In words: Phosphodiesterase inhibiting activity, PDE 1. It is filed as biochemical. As to conditions: isozyme from dog heart; 1 μM [3H]-cAMP or [3H]-cGMP; read-out: Inhibition of PDE Activity: IC50 PDE 1. As for the experimental part:
(§1) Pharmacological Test Example 1: Phosphodiesterase Inhibiting Activity
(§2) Cyclic nucleotide phosphodiesterases from human platelets and from the heart and kidney of a dog were eluted by the concentration gradient method with 70 to 1000 mM of sodium acetate on DEAE-cellulose column chromatography (Whatman Co. Ltd., DE-52, φ3.2×13 cm) according to the method of Thompson and others (Thompson W. J., et al., Advances in Cyclic Nucleotide Research: 10, 69-92, 1979), and separated into isozymes. PDE 5 (cGMP specific PDE) and PDE 3 (cGMP inhibitable cAMP PDE) were separated from the platelets, PDE 1 (Ca-calmodulin activatable PDE) from the heart, and PDE 4 (cGMP non-inhibitable cAMP PDE) from the kidney. The method of Thompson, et al was partially modified to measure phosphodiesterase activities: 1 μM of [3H]-cAMP or [3H]-cGMP was decomposed with phosphodiesterase. The produced 5′-AMP or 5′-GMP was decomposed to adenosine or guanosine with a snake venom (Sigma V7000). The reaction solution was added to anion exchange resin (Bio-Rad Co. Ltd., AG1-X8). Non-adsorbed adenosine or guanosine was counted by a liquid scintillation counter. A concentration causing 50% inhibition of the enzyme activity (IC50) was calculated from concentration inhibition curves.

For another data set, the target named is T1, PDE 2 (Homo sapiens, UniProt O00408).
T1 construct: eluted by the concentration gradient method with 70 to 1000 mM of sodium acetate on DEAE-cellulose column chromatography; from tissue
T1 sequence (O00408 whole entry): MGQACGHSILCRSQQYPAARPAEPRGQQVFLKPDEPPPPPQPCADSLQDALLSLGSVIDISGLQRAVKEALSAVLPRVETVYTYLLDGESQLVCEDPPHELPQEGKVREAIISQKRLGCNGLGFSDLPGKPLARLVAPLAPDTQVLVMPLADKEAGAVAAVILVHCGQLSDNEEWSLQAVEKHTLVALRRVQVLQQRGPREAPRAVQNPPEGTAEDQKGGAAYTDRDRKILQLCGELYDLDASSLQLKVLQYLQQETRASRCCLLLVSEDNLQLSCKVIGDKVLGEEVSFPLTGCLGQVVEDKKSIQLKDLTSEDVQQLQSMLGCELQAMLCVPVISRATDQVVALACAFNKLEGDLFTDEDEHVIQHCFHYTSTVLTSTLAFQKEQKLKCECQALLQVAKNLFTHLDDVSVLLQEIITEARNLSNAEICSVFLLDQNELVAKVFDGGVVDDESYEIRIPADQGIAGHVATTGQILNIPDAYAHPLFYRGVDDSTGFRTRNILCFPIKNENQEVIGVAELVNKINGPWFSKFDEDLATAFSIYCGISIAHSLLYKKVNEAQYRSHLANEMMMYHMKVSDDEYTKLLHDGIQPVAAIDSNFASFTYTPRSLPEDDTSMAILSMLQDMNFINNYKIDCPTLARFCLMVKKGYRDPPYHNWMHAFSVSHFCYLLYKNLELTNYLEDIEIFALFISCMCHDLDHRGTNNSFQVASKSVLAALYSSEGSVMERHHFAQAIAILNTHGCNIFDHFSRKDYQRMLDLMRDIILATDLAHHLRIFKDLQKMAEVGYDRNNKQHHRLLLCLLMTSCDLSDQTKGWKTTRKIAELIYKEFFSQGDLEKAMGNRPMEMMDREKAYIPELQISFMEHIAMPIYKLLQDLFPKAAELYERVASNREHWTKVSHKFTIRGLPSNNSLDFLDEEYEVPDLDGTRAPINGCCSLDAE
In words: Phosphodiesterase inhibiting activity, PDE 2. It is filed as biochemical. As to conditions: 1 μM [3H]-cAMP or [3H]-cGMP; source of isozyme not given; read-out: Inhibition of PDE Activity: IC50 PDE 2. On the procedure: [Worded in the source for another target; this target is reported under the same test.] as §1, §2

Data set [2] addresses T2, PDE 3 (cGMP inhibitable cAMP PDE) (Homo sapiens, UniProt Q14432).
T2 construct: from tissue; host or cells: human platelets
Briefly: Phosphodiesterase inhibiting activity, PDE 3. It is filed as biochemical. The conditions noted are these: isozyme from human platelets; 1 μM [3H]-cAMP or [3H]-cGMP; read-out: Inhibition of PDE Activity: IC50 PDE 3. As for the experimental part: as §1, §2

Data set [3] concerns the target PDE 4 (cGMP non-inhibitable cAMP PDE). Briefly: Phosphodiesterase inhibiting activity, PDE 4. The format is biochemical. As to conditions: isozyme from dog kidney; 1 μM [3H]-cAMP or [3H]-cGMP; read-out: Inhibition of PDE Activity: IC50 PDE 4. As for the experimental part: as §1, §2
Data set [4] has as its target T3, PDE 5 (cGMP specific PDE) (Homo sapiens, UniProt O76074).
T3 construct: from tissue; host or cells: human platelets
In words: Phosphodiesterase inhibiting activity, PDE 5. It is filed as biochemical. As to conditions: isozyme from human platelets; 1 μM [3H]-cAMP or [3H]-cGMP; read-out: Inhibition of PDE Activity: IC50 PDE 5. As for the experimental part:
as §1, §2

Another data set deals with thoracic aortas. Briefly: Vasodilating activity, phenylephrine-contracted thoracic aorta ring preparations (Magnus method). Further details: species or system Sprague-Dawley male rats. The conditions noted are these: rat thoracic aorta ring preparations contracted with 1 μM phenylephrine, 37° C., drug added cumulatively. On the procedure: Pharmacological Test Example 2: Vasodilating Activity
A vasodilating activity was assessed according to the method of Ken-ichi Hirata and Mitsuhiro Yokoyama (Arteriosclerosis and Hyperlipemia Research Strategies, published by Shujunsha (Japan), pages 275-277, 1996): The thoracic aortas were extracted from Sprague-Dawley male rats (weighing 180 to 360 g). After unnecessary connective tissues were removed, the aortas were cut to 5mm-long pieces to make ring strip preparations, and assessed by the Magnus method (37° C.). A nutrient solution used was a Krebs-Henseleit solution aerated with 5% carbon dioxide gas and 95% oxygen gas. Specimens were equilibrated for about 60 minutes, and then contracted by adding 1 μM of phenylephrine. 1 μM of acetylcholine was added at the second phenylepherine-induced contraction in order to confirm an endothelial cell dependent relaxation response. At the third phenylepherine-induced contraction, a drug to test was added cumulatively, and the relaxation action was observed. Drugs to test were all dissolved in DMSO to use for the tests. The tested drugs were assessed by 50% relaxation rates (EC50) obtained from vasodilation rates to respective concentrations (the maximum relaxation was measured by adding 100 μM of papaverine).

T2 sequence (Q14432 whole entry): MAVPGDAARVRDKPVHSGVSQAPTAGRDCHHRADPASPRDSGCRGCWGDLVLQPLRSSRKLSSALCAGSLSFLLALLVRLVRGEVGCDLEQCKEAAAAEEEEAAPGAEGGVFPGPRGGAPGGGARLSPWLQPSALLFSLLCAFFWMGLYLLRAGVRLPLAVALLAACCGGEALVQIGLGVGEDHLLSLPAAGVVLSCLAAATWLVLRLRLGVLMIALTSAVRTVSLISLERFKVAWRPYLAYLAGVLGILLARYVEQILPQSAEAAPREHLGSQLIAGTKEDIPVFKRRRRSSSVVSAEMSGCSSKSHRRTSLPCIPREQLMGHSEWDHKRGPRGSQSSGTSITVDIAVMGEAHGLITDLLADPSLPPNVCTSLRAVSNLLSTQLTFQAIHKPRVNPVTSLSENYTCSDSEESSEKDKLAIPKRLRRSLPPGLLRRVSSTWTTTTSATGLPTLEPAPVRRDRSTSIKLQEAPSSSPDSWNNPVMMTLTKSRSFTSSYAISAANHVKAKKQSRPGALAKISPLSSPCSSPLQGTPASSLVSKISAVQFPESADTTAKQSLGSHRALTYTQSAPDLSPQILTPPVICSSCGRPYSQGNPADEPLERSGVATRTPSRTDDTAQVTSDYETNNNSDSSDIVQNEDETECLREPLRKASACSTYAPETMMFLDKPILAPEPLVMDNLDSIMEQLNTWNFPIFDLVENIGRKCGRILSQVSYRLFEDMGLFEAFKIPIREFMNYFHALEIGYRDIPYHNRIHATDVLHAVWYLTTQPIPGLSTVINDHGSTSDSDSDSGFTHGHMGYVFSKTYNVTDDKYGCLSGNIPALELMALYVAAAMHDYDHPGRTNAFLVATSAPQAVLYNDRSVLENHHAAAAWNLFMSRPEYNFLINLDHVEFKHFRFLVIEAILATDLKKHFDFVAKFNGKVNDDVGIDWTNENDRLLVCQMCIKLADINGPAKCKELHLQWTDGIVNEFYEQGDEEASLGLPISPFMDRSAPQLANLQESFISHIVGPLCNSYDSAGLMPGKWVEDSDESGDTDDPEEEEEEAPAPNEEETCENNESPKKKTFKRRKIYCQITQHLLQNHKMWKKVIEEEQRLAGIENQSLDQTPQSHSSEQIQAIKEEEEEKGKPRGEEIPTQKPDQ

Consider `CCOC(=O)N1CCc2c(sc3nc(-c4ccncc4)nc(NCc4ccc(OC)c(Cl)c4)c23)C1` [1-5], for which the melting point was 218 to 220 °C. Also, in data set [1], the IC50 was > 10000 nM. For the same molecule, the IC50 on PDE 2 was > 10000 nM. Further, the IC50 in data set [2] is > 10000 nM. For the same molecule, in data set [3], the IC50 came to 2500 nM. Also, the IC50 in data set [4] is 0.54 nM. Besides, the EC50 in the data set with thoracic aortas worked out at 8.1 nM.
Regarding `COc1ccc(CNc2nc(-c3cccnc3)nc3sc4c(c23)CCN(C(C)=O)C4)cc1Cl` [1-9, 5,6,7,8-tetrahydro-4-[(3-chloro-4-methoxy)benzylamino]-7-acetyl-2-(3-pyridyl)pyrido[4′,3′:4,5]thieno[2,3-d]pyrimidine], the melting point was 226 to 227 °C. For the same molecule, the response in the data set on thoracic aortas was half-maximal at 6.3 nM (EC50).
Molecule `COc1ccc(CNc2nc(-c3ccncc3)nc3sc4c(c23)CCN(C)C4)cc1Cl` [1-7] showed a melting point of 118 to 120 °C. Besides, in data set [1], the IC50 is > 10000 nM. The IC50 on PDE 2 stood at 2000 nM. For the same molecule, the IC50 in data set [2] came to 5400 nM. In addition, the IC50 in data set [3] is 3700 nM. Moreover, the IC50 in data set [4] came to 2.4 nM. The EC50 in the data set with thoracic aortas was determined as 9.5 nM.
`COc1ccc(CNc2nc(-c3ccco3)nc3sc4c(c23)CCN(C)C4)cc1Cl` [1-6] yielded a melting point of 90 to 92 °C. Besides, in data set [1], the half-maximal inhibitory concentration (IC50) worked out at 5500 nM. Further, at PDE 2, the IC50 is > 10000 nM. For the same molecule, in data set [2], the IC50 is > 10000 nM. The IC50 in data set [3] is 3600 nM. Further, the IC50 in data set [4] is 50 nM. In addition, the EC50 in the data set on thoracic aortas was 16 nM.
On to `COc1ccc(CNc2nc(C(=O)Nc3ccccc3)nc3sc4c(c23)CCCC4)cc1Cl` [3-2], for which the melting point lay within 210 to 211 °C. The concentration for half-maximal inhibition (IC50) in data set [1] is > 10000 nM. Besides, at PDE 2, the IC50 was > 10000 nM. Further, the IC50 in data set [2] is > 10000 nM. Also, the IC50 in data set [3] was > 10000 nM. Further, the IC50 in data set [4] was determined as 0.39 nM.
As to `COC(=O)c1nc(NCc2ccc(OC)c(Cl)c2)c2c3c(sc2n1)CN(Cc1ccccc1)CC3` [1-65], the melting point was 168 to 170 °C. For the same molecule, the IC50 in data set [1] was > 10000 nM. At PDE 2, the half-maximal inhibitory concentration (IC50) is > 10000 nM. For the same molecule, in data set [2], the IC50 is > 10000 nM. Moreover, the IC50 in data set [3] was > 10000 nM. Moreover, the IC50 in data set [4] amounted to 91 nM. This molecule yielded an EC50 in the data set with thoracic aortas of 260 nM.
For `COC(=O)CNC(=O)c1nc(NCc2ccc(OC)c(Cl)c2)c2c3c(sc2n1)CN(C(C)C)CC3` [1-54], the melting point was in the range of 155 to 157 °C. In data set [1], the IC50 is > 10000 nM. Also, the IC50 on PDE 2 is > 10000 nM. Besides, the IC50 in data set [2] is ≥ 10000 nM. Also, the IC50 in data set [3] is > 10000 nM. Besides, the IC50 in data set [4] is 33 nM. This molecule also registered an EC50 in the data set on thoracic aortas of 19 nM.
In the case of `CCOC(=O)c1nc(NCc2ccc(OC)c(Cl)c2)c2c3c(sc2n1)CN(C)CC3` [1-69, ethyl 5,6,7,8-tetrahydro-4-[(3-chloro-4-methoxy)benzylamino]-7-methylpyrido[4′,3′:4,5]thieno[2,3-d]pyrimidine-2-carboxylate], the IC50 is > 10000 nM in data set [1]; > 10000 nM on PDE 2; > 10000 nM in data set [2]; > 10000 nM in data set [3]; 31 nM in data set [4]. In the data set with thoracic aortas, this molecule registered an EC50 of 18 nM.
For `COC(=O)c1ccc(NC(=O)c2nc(NCc3ccc(OC)c(Cl)c3)c3c4c(sc3n2)CN(C)CC4)cc1` [1-80], the IC50 in data set [1] was > 10000 nM; at PDE 2, 3300 nM; in data set [2] it was > 10000 nM; in data set [3], 4100 nM; in data set [4], 53 nM. In addition, the EC50 with thoracic aortas was determined as 25 nM.
In turn, `COc1ccc(CNc2nc(C(=O)NC3CC3)nc3sc4c(c23)CCN(C(C)C)C4)cc1Cl` [1-76] had a melting point of 112 to 114 °C. Moreover, the IC50 in data set [1] is > 10000 nM. Also, on PDE 2, the IC50 was > 10000 nM. In addition, in data set [2], the IC50 is > 10000 nM. The IC50 in data set [3] is > 10000 nM. Moreover, the IC50 in data set [4] stood at 56 nM. In addition, a half-maximal effect in the data set on thoracic aortas (EC50) was put at 26 nM.
In the case of `COc1ccc(CNc2nc(C(=O)Nc3ccccc3Cl)nc3sc4c(c23)CCN(C)C4)cc1Cl` [1-60], the IC50 in data set [1] is > 10000 nM; on PDE 2, > 10000 nM; in data set [2] it was > 10000 nM; in data set [3], 3600 nM; in data set [4] it was 14 nM. Moreover, in the data set on thoracic aortas, the response was half-maximal at 7.5 nM (EC50).
Take `COc1ccc(CNc2nc(C(=O)Nc3cccnc3)nc3sc4c(c23)CCN(C)C4)cc1Cl` [1-81]: the melting point is 145 to 147 °C. Moreover, the IC50 in data set [1] is > 10000 nM. Besides, at PDE 2, the IC50 was > 10000 nM. In addition, in data set [2], the IC50 is > 10000 nM. In addition, the IC50 in data set [3] is 6400 nM. Besides, in data set [4], the IC50 came to 6 nM. For the same molecule, the EC50 with thoracic aortas was determined as 3.1 nM.
Regarding `CCOc1ccccc1NC(=O)c1nc(NCc2ccc(OC)c(Cl)c2)c2c3c(sc2n1)CN(C(C)C)CC3` [1-55], the IC50 in data set [1] is > 10000 nM; at PDE 2, > 10000 nM; in data set [2], > 10000 nM; in data set [3], 2000 nM; in data set [4], 62 nM. The molecule further displayed a 50% effective concentration (EC50) with thoracic aortas of 180 nM.
In the case of `COc1ccc(CNc2nc(C(=O)NC3CCCCC3)nc3sc4c(c23)CCN(C)C4)cc1Cl` [1-63], the IC50 is > 10000 nM in data set [1]; > 10000 nM at PDE 2; > 10000 nM in data set [2]; > 10000 nM in data set [3]; 0.38 nM in data set [4]. Also, it took 4.8 nM to reach a half-maximal effect in the data set with thoracic aortas (EC50).
In the case of `COc1ccc(CNc2nc(C(=O)Nc3ccccc3)nc3sc4c(c23)CCN(Cc2ccccc2)C4)cc1Cl` [1-67], the IC50 is > 10000 nM in data set [1]; > 10000 nM at PDE 2; > 10000 nM in data set [2]; > 10000 nM in data set [3]; 0.39 nM in data set [4]. Moreover, the response with thoracic aortas was half-maximal at 82 nM (EC50).
Regarding `COc1ccc(CNc2nc(C(=O)Nc3ccncc3)nc3sc4c(c23)CCN(C)C4)cc1Cl` [1-58], the IC50 in data set [1] was > 10000 nM; at PDE 2 it was > 10000 nM; in data set [2] it was > 10000 nM; in data set [3], > 10000 nM; in data set [4], 2.1 nM. Besides, the EC50 with thoracic aortas came to 5.1 nM.
